Results published in US20250009753A1, “METHODS FOR TREATING IMMUNE REFRACTORY LUNG CANCER” (Revolution Medicines, Inc., priority 2022, published 2025).

Test system: eLL2 KRASWT/G12C NRAS−/− A2 tumors
Assay: Immune cell infiltration in tumors by flow cytometry
Format: in vivo, mouse
Details: 24 hours post 4 days of treatment, Compound A 200 mg/kg po qd, RMC-4550 30 mg/kg po qd, anti-PD-1 10 mg/kg ip qw
Description: Methods: Effects of Compound A (Ex. A556 of Table 1). dosed at 200 mg/kg po qd, RMC-4550 dosed at 30 mg/kg po qd, anti-PD-1 dosed at 10 mg/kg ip qw and the combination therapies on the immune cell infiltration in the eLL2 KRASWT/G12C NRAS−/− A2 tumors have been evaluated 24 hours post 4 days of treatment in 3 mice/group by flow cytometry. Tumor tissue was minced, processed with the Miltenyi Biotec Mouse Tumor Dissociation Kit or the Dri Tumor & Tissue Dissociation Reagent from BD Biosciences, and homogenized with the gentleMACS™ Dissociator. The cell suspension was incubated at 4° C. for 30 minutes with Mouse BD Fc Block (Clone 2.4G2 from BD Pharmingen), 10 minutes with Blue Dead Cell Stain Kit (from Invitrogen) and 30 min in cell staining buffer. Antibodies used targeted CD45 (Clone 30-F11 from BD Biosciences), CD19 (Clone 1D3 from BD Biosciences, CD3E (Clone145-2C11 from Biolegend), CD8b (Clone H35-17.2 from BD Biosciences), CD4 (Clone GK1.5 from Biolegend), CD11b (Clone M1/70 from Biolegend), F4/80 (Clone BM8 from Biolegend), Ly-6G (Clone 1A8 from BD Biosciences) and Ly-6C (Clone HK1.4 from Biolegend).

For `Cc1nc(N2CCC3(CC2)CO[C@@H](C)[C@H]3N)c(CO)nc1-c1cccc(Cl)c1Cl` [RMC-4550], the “Ly6G+ myeloid suppressor cells” value was “significantly decreased”.
